Measurements as given in ChEMBL document CHEMBL3885881, “DrugMatrix”.

Organism: Rattus norvegicus
Test: DrugMatrix - Regimen: Daily Repeat
Assay type: toxicity, organism-based, Sprague-Dawley
Parameters: regimen Daily Repeat, gender Male, age 6-8 weeks
Conditions: in vivo, po, route oral GAVAGE, […]; for ABSOLUTE BASOPHIL / ABSOLUTE EOSINOPHIL / ABSOLUTE LYMPHOCYTE / ABSOLUTE MONOCYTE / ABSOLUTE SEGMENTED NEUTROPHIL / BASOPHIL / EOSINOPHIL / ERYTHROCYTE COUNT / HEMATOCRIT / HEMOGLOBIN / LEUKOCYTE COUNT / LYMPHOCYTE / MEAN CORPUSCULAR HEMOGLOBIN / MEAN CORPUSCULAR HEMOGLOBIN CONCENTRATION / MEAN CORPUSCULAR VOLUME / MONOCYTE / NEUTROPHIL / NUCLEATED RED BLOOD CELLS / PLATELET COUNT: tissue Blood; for ALANINE AMINOTRANSFERASE / ALKALINE PHOSPHATASE / ASPARTATE AMINOTRANSFERASE / BLOOD UREA NITROGEN / CARBON DIOXIDE / CHLORIDE / CHOLESTEROL / CREATINE PHOSPHOKINASE / CREATININE / GLUCOSE / LACTATE DEHYDROGENASE / LIPASE / PHOSPHORUS / POTASSIUM / SODIUM / TOTAL BILIRUBIN / TOTAL PROTEIN / URIC ACID: tissue Plasma
[1] = 0 mg/kg, 72 h, dose level Control, time 3 day
[2] = 0 mg/kg, 120 h, dose level Control, time 5 day
[3] = 10 mg/kg, 72 h, dose level Low, time 3 day

CCOC(=O)C1=C(C)NC(C)=C(C(=O)OC)C1c1cccc([N+](=O)[O-])c1 (stereo not given) [NITRENDIPINE]
ABSOLUTE BASOPHIL [1]: 0 CELLS/uL
ABSOLUTE EOSINOPHIL [1]: 0 CELLS/uL
ABSOLUTE LYMPHOCYTE [1]: 9244.83 CELLS/uL
ABSOLUTE MONOCYTE [1]: 102 CELLS/uL
ABSOLUTE SEGMENTED NEUTROPHIL [1]: 869.83 CELLS/uL
BASOPHIL [1]: 0%
EOSINOPHIL [1]: 0%
ERYTHROCYTE COUNT [1]: 5.43 x10E6/uL
HEMATOCRIT [1]: 34.03%
HEMOGLOBIN [1]: 13.27 G/DL
LEUKOCYTE COUNT [1]: 10.22 x10E3/uL
LYMPHOCYTE [1]: 90.33%
MEAN CORPUSCULAR HEMOGLOBIN [1]: 24.48 pg
MEAN CORPUSCULAR HEMOGLOBIN CONCENTRATION [1]: 39.03 G/DL
MEAN CORPUSCULAR VOLUME [1]: 62.75 fL
MONOCYTE [1]: 1%
NEUTROPHIL [1]: 8.67%
NUCLEATED RED BLOOD CELLS [1]: 0.17 /100WBC
PLATELET COUNT [1]: 989 x10E3/uL
ALANINE AMINOTRANSFERASE [1]: 77 u/L
ALKALINE PHOSPHATASE [1]: 464.83 u/L
ASPARTATE AMINOTRANSFERASE [1]: 89.83 u/L
BLOOD UREA NITROGEN [1]: 12.17 mg/dL
CARBON DIOXIDE [1]: 34.17 mmol/L
CHLORIDE [1]: 98.33 MEQ/L
CHOLESTEROL [1]: 75.17 mg/dL
CREATINE PHOSPHOKINASE [1]: 367.67 u/L
CREATININE [1]: 0.16 mg/dL
GLUCOSE [1]: 142.67 mg/dL
LACTATE DEHYDROGENASE [1]: 139.33 u/L
LIPASE [1]: 9.5 u/L
PHOSPHORUS [1]: 10.85 mg/dL
POTASSIUM [1]: 6.38 MEQ/L
SODIUM [1]: 143.2 MEQ/L
TOTAL BILIRUBIN [1]: 0.2 mg/dL
TOTAL PROTEIN [1]: 5.77 G/DL
URIC ACID [1]: 0.7 mg/dL
ABSOLUTE BASOPHIL [2]: 0 CELLS/uL
ABSOLUTE EOSINOPHIL [2]: 0 CELLS/uL
ABSOLUTE LYMPHOCYTE [2]: 8295.33 CELLS/uL
ABSOLUTE MONOCYTE [2]: 84.67 CELLS/uL
ABSOLUTE SEGMENTED NEUTROPHIL [2]: 970 CELLS/uL
BASOPHIL [2]: 0%
EOSINOPHIL [2]: 0%
ERYTHROCYTE COUNT [2]: 5.74 x10E6/uL
HEMATOCRIT [2]: 36.22%
HEMOGLOBIN [2]: 13.85 G/DL
LEUKOCYTE COUNT [2]: 9.35 x10E3/uL
LYMPHOCYTE [2]: 88.67%
MEAN CORPUSCULAR HEMOGLOBIN [2]: 24.13 pg
MEAN CORPUSCULAR HEMOGLOBIN CONCENTRATION [2]: 38.25 G/DL
MEAN CORPUSCULAR VOLUME [2]: 63.08 fL
MONOCYTE [2]: 1%
NEUTROPHIL [2]: 10.33%
NUCLEATED RED BLOOD CELLS [2]: 0.17 /100WBC
PLATELET COUNT [2]: 883.83 x10E3/uL
ALANINE AMINOTRANSFERASE [2]: 64.5 u/L
ALKALINE PHOSPHATASE [2]: 425.67 u/L
ASPARTATE AMINOTRANSFERASE [2]: 88.5 u/L
BLOOD UREA NITROGEN [2]: 14.17 mg/dL
CARBON DIOXIDE [2]: 30.5 mmol/L
CHLORIDE [2]: 100.33 MEQ/L
CHOLESTEROL [2]: 55.33 mg/dL
CREATINE PHOSPHOKINASE [2]: 287.17 u/L
CREATININE [2]: 0.2 mg/dL
GLUCOSE [2]: 162.83 mg/dL
LACTATE DEHYDROGENASE [2]: 111.33 u/L
LIPASE [2]: 10.5 u/L
PHOSPHORUS [2]: 10.32 mg/dL
POTASSIUM [2]: 5.13 MEQ/L
SODIUM [2]: 143.93 MEQ/L
TOTAL BILIRUBIN [2]: 0.17 mg/dL
TOTAL PROTEIN [2]: 5.9 G/DL
URIC ACID [2]: 0.77 mg/dL
ABSOLUTE BASOPHIL [3]: 0 CELLS/uL
ABSOLUTE EOSINOPHIL [3]: 0 CELLS/uL
ABSOLUTE LYMPHOCYTE [3]: 9214.67 CELLS/uL
ABSOLUTE MONOCYTE [3]: 145.33 CELLS/uL
ABSOLUTE SEGMENTED NEUTROPHIL [3]: 940 CELLS/uL
BASOPHIL [3]: 0%
EOSINOPHIL [3]: 0%
ERYTHROCYTE COUNT [3]: 5.43 x10E6/uL
HEMATOCRIT [3]: 33.93%
HEMOGLOBIN [3]: 13.03 G/DL
LEUKOCYTE COUNT [3]: 10.3 x10E3/uL
LYMPHOCYTE [3]: 89.33%
MEAN CORPUSCULAR HEMOGLOBIN [3]: 24.03 pg
MEAN CORPUSCULAR HEMOGLOBIN CONCENTRATION [3]: 38.4 G/DL
MEAN CORPUSCULAR VOLUME [3]: 62.6 fL
MONOCYTE [3]: 1.33%
NEUTROPHIL [3]: 9.33%
NUCLEATED RED BLOOD CELLS [3]: 0 /100WBC
PLATELET COUNT [3]: 1124 x10E3/uL
ALANINE AMINOTRANSFERASE [3]: 72 u/L
ALKALINE PHOSPHATASE [3]: 422 u/L
ASPARTATE AMINOTRANSFERASE [3]: 86 u/L
BLOOD UREA NITROGEN [3]: 10.33 mg/dL
CARBON DIOXIDE [3]: 34.33 mmol/L
CHLORIDE [3]: 98.67 MEQ/L
CHOLESTEROL [3]: 71.67 mg/dL
CREATINE PHOSPHOKINASE [3]: 319.33 u/L
CREATININE [3]: 0.11 mg/dL
GLUCOSE [3]: 145.33 mg/dL
LACTATE DEHYDROGENASE [3]: 130.67 u/L
LIPASE [3]: 11.33 u/L
PHOSPHORUS [3]: 10.8 mg/dL
POTASSIUM [3]: 6.13 MEQ/L
SODIUM [3]: 144.4 MEQ/L
TOTAL BILIRUBIN [3]: 0.2 mg/dL
TOTAL PROTEIN [3]: 5.6 G/DL
